# Measurements reported in patent US20120148677A1, “CONTROLLED RELEASE PARTICLES CONTAINING ACID FIBROBLAST GROWTH FACTOR” (Taipei Veterans General Hospital, priority 2010, published 2012).
# Assays:
# PC-12 cells = assay: 6-OHDA neurotoxicity in PC-12 cells, MTT cell viability assay; type: cell-based
# Description: The neurotoxicity was test by PC-12 cells which were rat pheochromocytoma cell line. The cells were supplied by the Bioresource Collection and Research Center, Food Industry Research and Development Institute, Hsinchu, Taiwan, and maintained in RPMI 1640 supplemented with 10% HBS, 5% FBS, 1% penicillin/streptomycin (Gibco) at 37° C. in a humidified atmosphere containing 5% CO2 and the culture medium was changed every 2 days.
# 6-hydroxydopamin (6-OHDA) is a neurotoxin, which leads to apoptosis of catecholaminergic cells. This pharmacological mechanism can be used to test neuron protecting efficiency of aimed drugs. The cells were seeded in 96 well plates at a density of 4×10^4 cells/well, which were pre-coated with collagen. Following 24 hrs of starvation, the medium was changed into 5% serum. The experimental groups were given different treatments and added with 6-OHDA (sigma) until reaching the concentration of 100 uM. The medium without 6-OHDA works as control. The relative number of viable cells was monitored by MTT assay.
# MTT (3-(4,5-Dimethylthiazol-2-yl)-2,5-diphenyltetrazolium bromide) was a tetrazolium salt that can be reduced to purple-colored formazan by normal cell. The stock solution of MTT (5 mg/ml) was added into each well to make the medium of 0.5 mg/ml MTT and cells were incubated for 4 h. The supernatant was removed to obtain the MTT metabolic product, formazan, which was then dissolved in 120 ul DMSO (dimethylsulfoxide, sigma) and placed on a shaking table for 5 min until thoroughly dissolved. 100 ul of dissolved-formazan from each well was transferred into another plate to measure the absorbance with 560 nm at background 670 nm.
# The dosage used was 100 uM, which caused about 40% apoptosis. […] The empty particles (without aFGF) and the particles entrapping an aFGF were soaked in culture medium for 2 days at 4° C. The supernatant was then collected and diluted at different concentrations for treatment of the 6-OHDA-damaged PC-12 cells.
# trypsin = target: T1, trypsin (Bos taurus, UniProt P00760); assay: Proteolytic sensitivity to trypsin digestion, Western blot; type: in vitro ADME; settings: after 5 min of digestion, aFGF:trypsin 1:400, PBS, 37° C.
# T1 construct: purchased Sigma T1426
# T1 sequence (P00760 24-246): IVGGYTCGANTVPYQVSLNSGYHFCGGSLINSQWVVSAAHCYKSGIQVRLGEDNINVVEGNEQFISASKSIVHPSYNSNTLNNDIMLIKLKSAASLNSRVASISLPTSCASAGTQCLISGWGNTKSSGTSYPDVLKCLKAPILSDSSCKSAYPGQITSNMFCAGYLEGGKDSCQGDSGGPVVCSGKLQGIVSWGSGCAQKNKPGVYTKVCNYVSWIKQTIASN
# Description: In order to test how well of the particles can protect aFGF from an enzyme digestion, we mixed aFGF or the particles entrapping aFGF with a protein enzyme, trypsin. The aFGF and trypsin (Sigma, T1426) was mixed with the ratio of 1:400 in PBS bathed at 37° C. Ten microliters of product was taken out at various time intervals to mix with 10 ul of 2×SDS-sample buffer. The solution was then immediately being boiled for 5 mins to cease enzyme reaction.
# As shown in the results, the binding of aFGF to heparin increased the stability to overcome the challenge in vivo. To simulate physiological environment, the experiment was held at 37° C. The intact aFGF and aFGF in the particles of the invention were digested by Trypsin respectively, and aFGF antibody was used to detect the remaining aFGF. With the increase in time of enzyme digestion, the amount of aFGF decreases.
Compound,"apoptosis (PC-12 cells; 100 uM 6-OHDA, PC-12 cells)","EC50 (PC-12 cells; Rattus norvegicus, PC-12, read-out: ED50 (neurotoxicity)) [µM]","survival rate (PC-12 cells; 10 pg/ml aFGF, 100 uM 6-OHDA, PC-12 cells)","survival rate (PC-12 cells; 10 ng/ml aFGF, 100 uM 6-OHDA, PC-12 cells) [%]","effect on PC-12 death (PC-12 cells; 6-OHDA-treated PC-12 cells, FIG. 5)",remaining aFGF band after trypsin digestion (trypsin)
"NCCc1cc(O)c(O)cc1O [6-OHDA, 6-hydroxydopamin, reference compound]",about 40%,~125,,,,
acid fibroblast growth factor [aFGF],,,more than 72.63%,88.41,significantly blocks PC-12 death,almost disappeared
